The term EC50 denotes the concentration giving half of the maximal effect. A word on the CC50: it is the concentration giving 50% cytotoxicity. Higher therefore signals lower toxicity to the cells.

The subject of assay [1] is Human immunodeficiency virus 1. The assay is described as follows: Antiviral activity against HIV1 3B assessed as reduction in cytopathic effect in MT4 cells. It is filed as functional, organism-based. To be noted: Human immunodeficiency virus 1, 3B.
Assay [2] concerns MT4. The assay is described as follows: Selectivity index, EC50 against HIV2 ROD/CC50 against MT4 cells. The format is functional, Human immunodeficiency virus 2.
Assay [3] deals with C-X-C chemokine receptor type 4 (Homo sapiens) (UniProt P61073). The assay is described as follows: Binding affinity to CXCR4 by flow cell cytometry. It is filed as functional.
C-X-C chemokine receptor type 4 (Homo sapiens), sequence (P61073 whole entry): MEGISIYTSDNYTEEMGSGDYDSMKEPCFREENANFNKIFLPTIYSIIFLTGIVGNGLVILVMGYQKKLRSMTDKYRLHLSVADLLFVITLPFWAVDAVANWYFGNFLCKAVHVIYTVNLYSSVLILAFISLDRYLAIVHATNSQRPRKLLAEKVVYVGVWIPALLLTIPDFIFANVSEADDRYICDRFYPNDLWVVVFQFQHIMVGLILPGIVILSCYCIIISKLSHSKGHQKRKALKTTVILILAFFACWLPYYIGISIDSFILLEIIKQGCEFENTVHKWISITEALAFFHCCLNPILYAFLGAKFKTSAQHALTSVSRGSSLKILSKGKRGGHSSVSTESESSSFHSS
Assay [4] concerns MT4. The assay is described as follows: Cytotoxicity against human MT4 cells. It is filed as functional.
Assay [5] relates to MT4. The assay is described as follows: Selectivity index, EC50 against HIV1 3B/CC50 against MT4 cells. The format is functional, Human immunodeficiency virus 1.
Assay [6] relates to Human immunodeficiency virus 2. Put plainly: Antiviral activity against HIV2 ROD assessed as reduction in cytopathic effect in MT4 cells. To be noted: Human immunodeficiency virus 2, ROD. The format is functional, organism-based.

SMILES strings stand for the structures. The source made the active and inactive calls. The calls are words filed in the database; no cut-off is given here.

With `c1cc(CN2CCCN3CCN(CCCNCC2)CC3)ccc1CN1CCCN2CCN(CCCNCC1)CC2`, the EC50 in assay [1] was 6.98 µM; in assay [6] it was 23.2 µM. The Selectivity index with MT4 [2] is listed as above 10; with MT4 [5], above 32. Also, the outcome in assay [3] was Active. In the assay with MT4 [4], this molecule had a CC50 above 225 µM.

Source of the values: ChEMBL document CHEMBL1137394, “Configurationally restricted bismacrocyclic CXCR4 receptor antagonists” (J Med Chem, 2006).
